Results from patent US10738028B2, “Spiro three-membered ring, spiro five-membered ring peptide deformylase inhibitor and use thereof in antibacteria and anti-tumor” (priority 2016, dated 2020).

Legend:
Type in all cases: cell-based
[1] = system: HCT-116 colorectal cancer cell line; assay: CCK-8 proliferation inhibition; conditions: Homo sapiens, HCT-116, 72 h, concentration of 30 μM; 72 hours; CCK-8; read-out: HCT116 inhibition rate/%
Summary of the method: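 Growth inhibition is read by CCK-8 (1:10 dilution) after 72 h of compound exposure. HCT-116 cells grow in McCoy's 5A containing 10% newborn bovine serum at 2000 cells/well, with 1‰ DMSO as vehicle control.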

[2] = system: methicillin-resistant Staphylococcus aureus (MRSA); assay: MIC, two-fold agar dilution (CLSI), clinical isolates; conditions: for Anti-bacterial activity (MIC), strain MRSA 15-1: clinical isolate MRSA 15-1; for Anti-bacterial activity (MIC), strain MRSA 15-2: clinical isolate MRSA 15-2; for Anti-bacterial activity (MIC), strain MRSA 15-3: clinical isolate MRSA 15-3; for Anti-bacterial activity (MIC), strain MRSA 15-4: clinical isolate MRSA 15-4
Summary of the method: (§1)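 Test samples were assayed by the CLSI-recommended two-fold agar dilution method, and the minimum inhibitory concentration against each tested strain was determined.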

[3] = system: methicillin-sensitive Staphylococcus aureus (MSSA); assay: as above; conditions: for Anti-bacterial activity (MIC), strain MSSA 15-3: clinical isolate MSSA 15-3; for Anti-bacterial activity (MIC), strain MSSA 15-4: clinical isolate MSSA 15-4; for Anti-bacterial activity (MIC), strain MSSA 15-5: clinical isolate MSSA 15-5; for Anti-bacterial activity (MIC), strain MSSA 15-6: clinical isolate MSSA 15-6
Summary of the method: as §1

[4] = system: Escherichia coli (including ESBLs, non-ESBLs); assay: as above; conditions: for Anti-bacterial activity (MIC), strain ECO+ 15-1: clinical isolate ECO+ 15-1; for Anti-bacterial activity (MIC), strain ECO+ 15-2: clinical isolate ECO+ 15-2; for Anti-bacterial activity (MIC), strain ECO+ 15-3: clinical isolate ECO+ 15-3; for Anti-bacterial activity (MIC), strain ECO+ 15-4: clinical isolate ECO+ 15-4; for Anti-bacterial activity (MIC), strain ECO− 15-1: clinical isolate ECO− 15-1; for Anti-bacterial activity (MIC), strain ECO− 15-2: clinical isolate ECO− 15-2; for Anti-bacterial activity (MIC), strain ECO− 15-3: clinical isolate ECO− 15-3; for Anti-bacterial activity (MIC), strain ECO− 15-4: clinical isolate ECO− 15-4
Summary of the method: as §1

[5] = system: Enterococcus faecium (EFM); assay: as above
Summary of the method: as §1

[6] = system: methicillin-sensitive Staphylococcus epidermidis (MSSE); assay: as above; conditions: for Anti-bacterial activity (MIC), strain MSSE 15-3: clinical isolate MSSE 15-3; for Anti-bacterial activity (MIC), strain MSSE 15-4: clinical isolate MSSE 15-4; for Anti-bacterial activity (MIC), strain MSSE 15-5: clinical isolate MSSE 15-5; for Anti-bacterial activity (MIC), strain MSSE 15-6: clinical isolate MSSE 15-6
Summary of the method: as §1

[7] = system: Enterococcus faecalis (EFA); assay: as above
Summary of the method: as §1

[8] = system: Moraxella catarrhalis (BCA); assay: as above
Summary of the method: as §1

[9] = system: Streptococcus pneoumoniae (SPN); assay: as above
Summary of the method: as §1

[10] = system: methicillin-resistant Staphylococcus epidermidis (MRSE); assay: as above; conditions: for Anti-bacterial activity (MIC), strain MRSE 15-1: clinical isolate MRSE 15-1; for Anti-bacterial activity (MIC), strain MRSE 15-2: clinical isolate MRSE 15-2; for Anti-bacterial activity (MIC), strain MRSE 15-3: clinical isolate MRSE 15-3; for Anti-bacterial activity (MIC), strain MRSE 15-7: clinical isolate MRSE 15-7
Summary of the method: as §1

Compound `CCCC[C@H](CC(=O)NO)C(=O)N1CC2(CC2)C[C@H]1c1nc2ccccc2n1CCN(C)C` [Example 60, (R)-3-((S)-6-(1-(2-(dimethylamino)ethyl)-1H-benzimidazol-2-yl)-5-azaspiro[2.4]heptane-5-carbonyl)-N-hydroxyheptanamide] has an inhibition at 30 µM [1] of -2%, an Anti-bacterial activity (MIC), strain MRSA 15-1 [2] greater than 32 µg/mL and an Anti-bacterial activity (MIC), strain MRSA 15-2 [2] greater than 32 µg/mL. It also gave an Anti-bacterial activity (MIC), strain MRSA 15-3 [2] greater than 32 µg/mL, an Anti-bacterial activity (MIC), strain MRSA 15-4 [2] greater than 32 µg/mL and an Anti-bacterial activity (MIC), strain MSSA 15-3 [3] greater than 32 µg/mL. For the same compound, the Anti-bacterial activity (MIC), strain MSSA 15-4 [3] was greater than 32 µg/mL, the Anti-bacterial activity (MIC), strain MSSA 15-5 [3] was greater than 32 µg/mL and the Anti-bacterial activity (MIC), strain MSSA 15-6 [3] was greater than 32 µg/mL. The Anti-bacterial activity (MIC), strain ECO+ 15-1 [4] was greater than 32 µg/mL, the Anti-bacterial activity (MIC), strain ECO+ 15-2 [4] was greater than 32 µg/mL and the Anti-bacterial activity (MIC), strain ECO+ 15-3 [4] was greater than 32 µg/mL. For the same compound, the Anti-bacterial activity (MIC), strain ECO+ 15-4 [4] was greater than 32 µg/mL, the Anti-bacterial activity (MIC), strain ECO− 15-1 [4] was greater than 32 µg/mL and the Anti-bacterial activity (MIC), strain ECO− 15-2 [4] was greater than 32 µg/mL. For the same compound, the Anti-bacterial activity (MIC), strain ECO− 15-3 [4] was greater than 32 µg/mL, the Anti-bacterial activity (MIC), strain ECO− 15-4 [4] was greater than 32 µg/mL and the Anti-bacterial activity (MIC), strain EFM 15-1 ([5]; clinical isolate EFM 15-1) was greater than 32 µg/mL. The Anti-bacterial activity (MIC), strain EFM 15-2 ([5]; clinical isolate EFM 15-2) was greater than 32 µg/mL, the Anti-bacterial activity (MIC), strain EFM 15-3 ([5]; clinical isolate EFM 15-3) was greater than 32 µg/mL and the Anti-bacterial activity (MIC), strain EFM 15-4 ([5]; clinical isolate EFM 15-4) was greater than 32 µg/mL. The Anti-bacterial activity (MIC), strain EFM 15-5 ([5]; clinical isolate EFM 15-5) was 8 µg/mL, the Anti-bacterial activity (MIC), strain EFM 15-6 ([5]; clinical isolate EFM 15-6) was 32 µg/mL and the Anti-bacterial activity (MIC), strain MSSE 15-3 [6] was greater than 32 µg/mL. For the same compound, the Anti-bacterial activity (MIC), strain MSSE 15-4 [6] was greater than 32 µg/mL, the Anti-bacterial activity (MIC), strain MSSE 15-5 [6] was greater than 32 µg/mL and the Anti-bacterial activity (MIC), strain MSSE 15-6 [6] was greater than 32 µg/mL. It also gave an Anti-bacterial activity (MIC), strain EFA 15-1 ([7]; clinical isolate EFA 15-1) greater than 32 µg/mL, an Anti-bacterial activity (MIC), strain EFA 15-2 ([7]; clinical isolate EFA 15-2) greater than 32 µg/mL and an Anti-bacterial activity (MIC), strain EFA 15-3 ([7]; clinical isolate EFA 15-3) greater than 32 µg/mL. For the same compound, the Anti-bacterial activity (MIC), strain EFA 15-4 ([7]; clinical isolate EFA 15-4) was greater than 32 µg/mL, the Anti-bacterial activity (MIC), strain EFA 15-5 ([7]; clinical isolate EFA 15-5) was greater than 32 µg/mL and the Anti-bacterial activity (MIC), strain EFA 15-6 ([7]; clinical isolate EFA 15-6) was greater than 32 µg/mL. It also gave an Anti-bacterial activity (MIC), strain EFA 15-9 ([7]; clinical isolate EFA 15-9) greater than 32 µg/mL, an Anti-bacterial activity (MIC), strain BCA 14-1 ([8]; clinical isolate BCA 14-1) greater than 32 µg/mL and an Anti-bacterial activity (MIC), strain BCA 14-4 ([8]; clinical isolate BCA 14-4) greater than 32 µg/mL. The Anti-bacterial activity (MIC), strain BCA 14-5 ([8]; clinical isolate BCA 14-5) was greater than 32 µg/mL, the Anti-bacterial activity (MIC), strain BCA 14-6 ([8]; clinical isolate BCA 14-6) was greater than 32 µg/mL and the Anti-bacterial activity (MIC), strain BCA 14-7 ([8]; clinical isolate BCA 14-7) was greater than 32 µg/mL. The Anti-bacterial activity (MIC), strain BCA 14-8 ([8]; clinical isolate BCA 14-8) was greater than 32 µg/mL, the Anti-bacterial activity (MIC), strain BCA 14-10 ([8]; clinical isolate BCA 14-10) was greater than 32 µg/mL and the Anti-bacterial activity (MIC), strain SPN 16-2 ([9]; clinical isolate SPN 16-2) was 1 µg/mL. It also gave an Anti-bacterial activity (MIC), strain SPN 16-4 ([9]; clinical isolate SPN 16-4) of 1 µg/mL, an Anti-bacterial activity (MIC), strain MRSE 15-1 [10] greater than 32 µg/mL and an Anti-bacterial activity (MIC), strain MRSE 15-2 [10] greater than 32 µg/mL. It also gave an Anti-bacterial activity (MIC), strain MRSE 15-3 [10] greater than 32 µg/mL and an Anti-bacterial activity (MIC), strain MRSE 15-7 [10] greater than 32 µg/mL.
With `O=C(C[C@@H](CC1CCCC1)C(=O)N1CC2(CC2)C[C@H]1C(=O)NC1CC1)NO` [Example 68] the inhibition at 30 µM [1] was 21%, the Anti-bacterial activity (MIC), strain MRSA 15-1 [2] was greater than 32 µg/mL and the Anti-bacterial activity (MIC), strain MRSA 15-2 [2] was greater than 32 µg/mL. It also gave an Anti-bacterial activity (MIC), strain MRSA 15-3 [2] greater than 32 µg/mL, an Anti-bacterial activity (MIC), strain MRSA 15-4 [2] greater than 32 µg/mL and an Anti-bacterial activity (MIC), strain MSSA 15-3 [3] greater than 32 µg/mL. The Anti-bacterial activity (MIC), strain MSSA 15-4 [3] was greater than 32 µg/mL, the Anti-bacterial activity (MIC), strain MSSA 15-5 [3] was greater than 32 µg/mL and the Anti-bacterial activity (MIC), strain MSSA 15-6 [3] was greater than 32 µg/mL. It also gave an Anti-bacterial activity (MIC), strain ECO+ 15-1 [4] greater than 32 µg/mL, an Anti-bacterial activity (MIC), strain ECO+ 15-2 [4] greater than 32 µg/mL and an Anti-bacterial activity (MIC), strain ECO+ 15-3 [4] greater than 32 µg/mL. The Anti-bacterial activity (MIC), strain ECO+ 15-4 [4] was greater than 32 µg/mL, the Anti-bacterial activity (MIC), strain ECO− 15-1 [4] was greater than 32 µg/mL and the Anti-bacterial activity (MIC), strain ECO− 15-2 [4] was greater than 32 µg/mL. It also gave an Anti-bacterial activity (MIC), strain ECO− 15-3 [4] greater than 32 µg/mL, an Anti-bacterial activity (MIC), strain ECO− 15-4 [4] greater than 32 µg/mL and an Anti-bacterial activity (MIC) ([5]; strain EFM 15-1) greater than 32 µg/mL. It also gave an Anti-bacterial activity (MIC) ([5]; strain EFM 15-2) greater than 32 µg/mL, an Anti-bacterial activity (MIC) ([5]; strain EFM 15-3) greater than 32 µg/mL and an Anti-bacterial activity (MIC) ([5]; strain EFM 15-4) of 32 µg/mL. The Anti-bacterial activity (MIC) ([5]; strain EFM 15-5) was 4 µg/mL, the Anti-bacterial activity (MIC) ([5]; strain EFM 15-6) was 4 µg/mL and the Anti-bacterial activity (MIC), strain MSSE 15-3 [6] was greater than 32 µg/mL. For the same compound, the Anti-bacterial activity (MIC), strain MSSE 15-4 [6] was greater than 32 µg/mL, the Anti-bacterial activity (MIC), strain MSSE 15-5 [6] was greater than 32 µg/mL and the Anti-bacterial activity (MIC), strain MSSE 15-6 [6] was greater than 32 µg/mL. The Anti-bacterial activity (MIC) ([7]; strain EFA 15-1) was greater than 32 µg/mL, the Anti-bacterial activity (MIC) ([7]; strain EFA 15-2) was greater than 32 µg/mL and the Anti-bacterial activity (MIC) ([7]; strain EFA 15-3) was greater than 32 µg/mL. It also gave an Anti-bacterial activity (MIC) ([7]; strain EFA 15-4) greater than 32 µg/mL, an Anti-bacterial activity (MIC) ([7]; strain EFA 15-5) greater than 32 µg/mL and an Anti-bacterial activity (MIC) ([7]; strain EFA 15-6) greater than 32 µg/mL. It also gave an Anti-bacterial activity (MIC) ([7]; strain EFA 15-9) of 32 µg/mL, an Anti-bacterial activity (MIC) ([8]; strain BCA 14-1) of 32 µg/mL and an Anti-bacterial activity (MIC) ([8]; strain BCA 14-4) of 32 µg/mL. For the same compound, the Anti-bacterial activity (MIC) ([8]; strain BCA 14-5) was 4 µg/mL, the Anti-bacterial activity (MIC) ([8]; strain BCA 14-6) was 32 µg/mL and the Anti-bacterial activity (MIC) ([8]; strain BCA 14-7) was 32 µg/mL. For the same compound, the Anti-bacterial activity (MIC) ([8]; strain BCA 14-8) was 32 µg/mL, the Anti-bacterial activity (MIC) ([8]; strain BCA 14-10) was 2 µg/mL and the Anti-bacterial activity (MIC) ([9]; strain SPN 16-2) was 2 µg/mL. It also gave an Anti-bacterial activity (MIC) ([9]; strain SPN 16-4) of 1 µg/mL, an Anti-bacterial activity (MIC), strain MRSE 15-1 [10] greater than 32 µg/mL and an Anti-bacterial activity (MIC), strain MRSE 15-2 [10] greater than 32 µg/mL. For the same compound, the Anti-bacterial activity (MIC), strain MRSE 15-3 [10] was greater than 32 µg/mL and the Anti-bacterial activity (MIC), strain MRSE 15-7 [10] was greater than 32 µg/mL.
